Eleven molecules from US20200030355A1, “COMBINATION THERAPY FOR TREATING CANCER” (Epizyme, Inc., priority 2014, published 2020) can be followed below.

One assay concerns MOLM-13 cells. In words: EPZ-5676 300 nM 7-day pre-treatment, then second compound 72 hours, ATPLite, IC50 shift (Example 6). Conditions: 300 nM EPZ-5676 or DMSO 7-day pre-treatment, then 2nd compound 72 hours, Synergy = IC50 of 2nd compound decreased by 2-fold or more vs DMSO control. The class given is cell-based, human. As to the method: (§1) Cells were then equilibrated in incubators for 24 hours before treatment with a second compound. Treated assay plates were incubated with a second compound for 72 hours. After this time, plates were developed for endpoint analysis using ATPLite to measure ATP content, which is used as an indicator of cell viability.
(§2) “N/D” means that IC50 of the second compound could not be determined for both conditions.
On the technique in general: In ATP-based viability assays light output follows the ATP content of the culture.

For a further assay, the system named is SKM-1 cells. The assay is described as above. The class given is cell-based, human. Conditions: SKM-1 cells; 300 nM EPZ-5676 or DMSO 7-day pre-treatment, then 2nd compound 72 hours, ATPLite; Synergy = IC50 of 2nd compound decreased by 2-fold or more vs DMSO control. As to the method: as §1, §2

Structures are written as SMILES.

As to `O=C(/C=C/c1ccc(O)c(O)c1)OCCc1ccccc1` [CAPE], the “MOLM-13 (summary of combination study: EPZ-5676 + 2nd compound)” value in the assay on MOLM-13 cells was “Synergy (considered synergistic if the IC50 value of the second compound decreased by 2-fold or more when EPZ-5676 was added as compared to the DMSO control)”. Also, the “SKM-1 (summary of combination study: EPZ-5676 + 2nd compound)” value in the assay with SKM-1 cells was “Synergy (considered synergistic if the IC50 value of the second compound decreased by 2-fold or more when EPZ-5676 was added as compared to the DMSO control)”.

Consider `COCc1c(C(C)C)nc(C(C)C)c(/C=C/[C@@H](O)C[C@@H](O)CC(=O)O)c1-c1ccc(F)cc1` [Cerivastatin Sodium], for which the “MOLM-13 (summary of combination study: EPZ-5676 + 2nd compound)” value in the assay on MOLM-13 cells is on record as “Synergy (considered synergistic if the IC50 value of the second compound decreased by 2-fold or more when EPZ-5676 was added as compared to the DMSO control)”. In the assay on SKM-1 cells, the “SKM-1 (summary of combination study: EPZ-5676 + 2nd compound)” value is “Synergy (considered synergistic if the IC50 value of the second compound decreased by 2-fold or more when EPZ-5676 was added as compared to the DMSO control)”.

On to `Cc1sc2c(c1C)C(c1ccc(Cl)cc1)=N[C@@H](CC(=O)Nc1ccc(O)cc1)c1nnc(C)n1-2` [OTX015], for which, in the assay on MOLM-13 cells, the “MOLM-13 (summary of combination study: EPZ-5676 + 2nd compound)” value is on record as “Synergy (considered synergistic if the IC50 value of the second compound decreased by 2-fold or more when EPZ-5676 was added as compared to the DMSO control)”. In addition, the “SKM-1 (summary of combination study: EPZ-5676 + 2nd compound)” value in the assay on SKM-1 cells is recorded as “Synergy (considered synergistic if the IC50 value of the second compound decreased by 2-fold or more when EPZ-5676 was added as compared to the DMSO control)”.

On to `Cc1sc2c(c1C)C(c1ccc(Cl)cc1)=N[C@@H](CC(N)=O)c1nnc(C)n1-2` [CPI-203], for which the “MOLM-13 (summary of combination study: EPZ-5676 + 2nd compound)” value in the assay on MOLM-13 cells is reported as “Synergy (considered synergistic if the IC50 value of the second compound decreased by 2-fold or more when EPZ-5676 was added as compared to the DMSO control)”. In the assay on SKM-1 cells, the “SKM-1 (summary of combination study: EPZ-5676 + 2nd compound)” value is listed as “Synergy (considered synergistic if the IC50 value of the second compound decreased by 2-fold or more when EPZ-5676 was added as compared to the DMSO control)”.

Regarding `COc1ccc(-c2ccc3c(N4CCOCC4)nc(N4C[C@@H](C)O[C@@H](C)C4)nc3n2)cc1CO` [KU 0063794], in the assay with MOLM-13 cells, the “MOLM-13 (summary of combination study: EPZ-5676 + 2nd compound)” value was “Synergy (considered synergistic if the IC50 value of the second compound decreased by 2-fold or more when EPZ-5676 was added as compared to the DMSO control)”. Further, the “SKM-1 (summary of combination study: EPZ-5676 + 2nd compound)” value in the assay with SKM-1 cells was “Synergy (considered synergistic if the IC50 value of the second compound decreased by 2-fold or more when EPZ-5676 was added as compared to the DMSO control)”.

In the case of `O=C(c1cn(Cc2cncn2Cc2ccc(Br)cc2)cc1-c1cccc2ccccc12)N1CCOCC1` [LB42708], the “MOLM-13 (summary of combination study: EPZ-5676 + 2nd compound)” value in the assay on MOLM-13 cells is “Synergy (considered synergistic if the IC50 value of the second compound decreased by 2-fold or more when EPZ-5676 was added as compared to the DMSO control)”. In addition, the “SKM-1 (summary of combination study: EPZ-5676 + 2nd compound)” value in the assay with SKM-1 cells was “Synergy (considered synergistic if the IC50 value of the second compound decreased by 2-fold or more when EPZ-5676 was added as compared to the DMSO control)”.

For `CN(C)C(=O)c1cc2cnc(Nc3ccc(N4CCNCC4)cn3)nc2n1C1CCCC1` [LEE011], the “MOLM-13 (summary of combination study: EPZ-5676 + 2nd compound)” value in the assay with MOLM-13 cells is on record as “Synergy (considered synergistic if the IC50 value of the second compound decreased by 2-fold or more when EPZ-5676 was added as compared to the DMSO control)”. Moreover, in the assay on SKM-1 cells, the “SKM-1 (summary of combination study: EPZ-5676 + 2nd compound)” value is recorded as “Synergy (considered synergistic if the IC50 value of the second compound decreased by 2-fold or more when EPZ-5676 was added as compared to the DMSO control)”.

In the case of `CC1=C(/C=C/C(C)=C/C=C/C(C)=C/C(=O)O)C(C)(C)CCC1` [Tretinoin], in the assay with MOLM-13 cells, the “MOLM-13 (summary of combination study: EPZ-5676 + 2nd compound)” value is on record as “Synergy (considered synergistic if the IC50 value of the second compound decreased by 2-fold or more when EPZ-5676 was added as compared to the DMSO control)”. Also, in the assay with SKM-1 cells, the “SKM-1 (summary of combination study: EPZ-5676 + 2nd compound)” value is “Synergy (considered synergistic if the IC50 value of the second compound decreased by 2-fold or more when EPZ-5676 was added as compared to the DMSO control)”.

In the case of `COc1cc2c(NC3CCN(C4CCCCC4)CC3)nc(N3CCCN(C(C)C)CC3)nc2cc1OCCCN1CCCCC1` [UNC 0646], the “MOLM-13 (summary of combination study: EPZ-5676 + 2nd compound)” value in the assay with MOLM-13 cells is given as “Synergy (considered synergistic if the IC50 value of the second compound decreased by 2-fold or more when EPZ-5676 was added as compared to the DMSO control)”. Also, the “SKM-1 (summary of combination study: EPZ-5676 + 2nd compound)” value in the assay on SKM-1 cells is “Synergy (considered synergistic if the IC50 value of the second compound decreased by 2-fold or more when EPZ-5676 was added as compared to the DMSO control)”.

`CS(=O)(=O)N1CCN(Cc2cc3nc(-c4cccc5[nH]ncc45)nc(N4CCOCC4)c3s2)CC1` [GDC-0941]: in the assay with MOLM-13 cells, the “MOLM-13 (summary of combination study: EPZ-5676 + 2nd compound)” value is recorded as “Synergy (considered synergistic if the IC50 value of the second compound decreased by 2-fold or more when EPZ-5676 was added as compared to the DMSO control)”. Moreover, the “SKM-1 (summary of combination study: EPZ-5676 + 2nd compound)” value in the assay on SKM-1 cells is “Synergy (considered synergistic if the IC50 value of the second compound decreased by 2-fold or more when EPZ-5676 was added as compared to the DMSO control)”.

Regarding `C=C(c1ccc(C(=O)O)cc1)c1cc2c(cc1C)C(C)(C)CCC2(C)C` [Bexarotene], the “MOLM-13 (summary of combination study: EPZ-5676 + 2nd compound)” value in the assay on MOLM-13 cells is recorded as “Synergy (considered synergistic if the IC50 value of the second compound decreased by 2-fold or more when EPZ-5676 was added as compared to the DMSO control)”. The “SKM-1 (summary of combination study: EPZ-5676 + 2nd compound)” value with SKM-1 cells is “Synergy (considered synergistic if the IC50 value of the second compound decreased by 2-fold or more when EPZ-5676 was added as compared to the DMSO control)”.
